Key:
patients with meningioma = experiment: Phase I clinical trial, tumor assessment by RANO criteria for meningioma; type: in vivo, human; settings: for C2 target lesion shrinkage / target lesion shrinkage: head MRI; for target lesion shrinkage: after 6 cycles
Method: Compound (I) is currently undergoing phase I clinical trials to evaluate the preliminary efficacy on patients with meningioma.
Drug: compound (I) oral solution, 10-25 mg/day, once daily.
If no serious adverse events occurred, subsequent treatment cycles (21 days for each cycle) of administration may begin until progressive disease (PD) or intolerable toxicity occurred.
The efficacy on tumors was evaluated according to the RANO Criteria for Meningioma (Huang, Raymond Y et al. Proposed response assessment and endpoints for meningioma clinical trials: report from the Response Assessment in Neuro-Oncology Working Group. Neuro-oncology. vol. 21, 1 (2019): 26-36. doi:10.1093/neuonc/noy137). Target lesions were selected from tumor lesions with enhancement according to the criteria and precisely measured. The tumor treatment efficacy on the target lesions was confirmed by comparing the changes in the measured values. […] In addition, the improvement and deterioration of clinical symptoms of patients and the change in steroid hormone doses for symptomatic treatment of neurological symptoms were also used as evaluation indexes in tumor assessment. A tumor assessment was performed at baseline prior to the first administration and then performed once every 6 weeks during the administration until progressive disease (PD) occurred or a new anti-tumor treatment started.

CH157-MN [1] = experiment: Cell scratch assay (migration); type: cell-based, human; settings: CH157-MN, 2, 5, 10 µM, 24 h, versus blank control; dose-dependent
Method: (§1) • (1) The IOMM-Lee single cell suspension in the logarithmic growth phase was seeded in a 6-well plate at a cell density of 6 × 10^5 cells/mL and cultured for 24 h to ensure the full covering of the entire cell culture dish by the growing cells. A cell scratch was made by a 10 µL sterile pipette tip perpendicular to the culture dish; the original culture solution was discarded; and the detached cells were pipetted by washing with PBS 3 times. The cells were cultured using a serum-free DMEM culture medium and grouped into a blank control group and compound (I) treatment groups at different concentrations, where the compound (I) treatment groups had concentrations of 0.5 µM, 1 µM, and 2 µM, respectively. The cells were observed under the bright field of a microscope and recorded at 0 h and 24 h. • (2) With reference to the experimental method (1), the concentrations in the compound (I) treatment groups were replaced by 2 µM, 5 µM, and 10 µM, respectively, and the used human meningioma cell line was IOMM-Lee or CH157-MN.

IOMM-Lee [2] = experiment: Cell scratch assay (migration); type: cell-based, human; settings: IOMM-Lee, 0.5, 1, 2 µM and 2, 5, 10 µM, 24 h, versus blank control; dose-dependent
Method: as §1

CH157-MN [3] = experiment: Transwell chamber assay (invasion); type: cell-based, human; settings: CH157-MN, 2, 5, 10 µM, 24 h; with increasing concentration
Method: (§2) • (1) The upper chamber of the pre-cooled Transwell chamber was coated with 50 µL of matrigel, and the matrigel-coated chamber was incubated in an incubator at 37 °C for 6-8 h to allow the matrigel to polymerize into a gel. After 100 µL of a serum-free culture medium was added to each well, the chamber was placed in an incubator for 1 h to allow the basement membrane hydration. The liquid in the upper chamber was removed, and the IOMM-Lee single cell suspension in the logarithmic growth phase was adjusted to a cell density of 2 × 10^5 cells/mL using the serum-free DMEM culture medium; 200 µL of the cell suspension was added to the Transwell chamber; and the culture liquid in the lower chamber was a DMEM culture medium with 20% FBS. Compound (I) samples at different concentrations (0 µM, 0.5 µM, 1 µM, and 2 µM, respectively) were added to the chamber. The culture was finished 24 h later; and the cells in the chamber were removed with a cotton swab, fixed with 4% paraformaldehyde for 20 min, washed with PBS 3 times, stained with crystal violet for 30 min, and observed under a microscope. The invading cells were counted. • (2) With reference to the experimental method (1), the concentrations in the compound (I) treatment groups were replaced by 2 µM, 5 µM, and 10 µM, respectively, and the used human meningioma cell line was IOMM-Lee or CH157-MN.

IOMM-Lee [4] = experiment: Transwell chamber assay (invasion); type: cell-based, human; settings: IOMM-Lee, 0.5, 1, 2 µM and 2, 5, 10 µM, 24 h; with increasing concentration
Method: as §2

CH157-MN [5] = experiment: Apoptosis by annexin V-FITC/PI flow cytometry; type: cell-based, human; settings: CH157-MN, 2, 5, 10 µM, 24 h, versus blank control
Method: (§3) • (1) The IOMM-Lee single cell suspension in the logarithmic growth phase was seeded in a 6-well plate at a cell density of 5 × 10^5 cells/mL, cultured overnight, and grouped into a blank control group and compound (I) treatment groups at different concentrations, with concentrations of compound (I) being 1 µM, 5 µM, and 10 µM, respectively, and 3-4 replicate wells were set. After the addition of compound (I) at different concentrations for the treatment for 24 h, (1-10) × 10^5 cells were collected from the blank control group and each compound (I) treatment group, washed with PBS, and centrifuged. The cells were resuspended in 500 µL of 1× binding buffer. 5 µL of annexin V-FITC and 10 µL of PI were added to each tube. After gently and homogeneously mixing by vortex, the cells were incubated in the dark at room temperature for 5 min and then subjected to flow cytometry. • (2) With reference to the experimental method (1), the concentrations in the compound (I) treatment groups were replaced by 2 µM, 5 µM, and 10 µM, respectively, and the used human meningioma cell line was IOMM-Lee or CH157-MN.

IOMM-Lee [6] = experiment: Apoptosis by annexin V-FITC/PI flow cytometry; type: cell-based, human; settings: IOMM-Lee, 1, 5, 10 µM and 2, 5, 10 µM, 24 h, versus blank control
Method: as §3

[7] = 34 meningioma patients, oral solution 10-25 mg/day
[8] = RANO criteria for meningioma, 34 meningioma patients, oral solution 10-25 mg/day
[9] = by Feb. 2, 2024, 32 patients completed the tumor assessment, oral solution 10-25 mg/day
[10] = by Jan. 16, 2023, 5 patients completed the tumor assessment, oral solution 10-25 mg/day
[11] = of 34 meningioma patients, oral solution 10-25 mg/day

For `Cc1cc(NC(=O)c2cccc3cc(-c4cccc5[nH]nc(N)c45)ccc23)ccc1F` [compound (I)], the “adverse events associated with the administration (severity)” value (patients with meningioma; [7]) was “mostly mild and moderate”, the “adverse events with an incidence of greater than 20%” value (patients with meningioma; [7]) was “hypertension, decreased platelet count, increased blood lactate dehydrogenase, sinus bradycardia, proteinuria, increased aspartate aminotransferase, increased alanine aminotransferase, hypokalemia, hyperlipidemia, decreased neutrophil count, decreased leukocyte count, diarrhea, and anemia” and the disease control rate (patients with meningioma; [8]) was 82.4%. For the same compound, the objective remission rate (patients with meningioma; [8]) was 29.41%, the “C2 target lesion shrinkage” value (patients with meningioma; Typical case 1: anaplastic meningioma WHO grade III, oral solution 15 mg once daily, two cycles) was 56% and the “adverse events during the treatment” value (patients with meningioma; Typical case 1: oral solution 15 mg once daily) was “No adverse events”. For the same compound, the “clinical symptoms reported by subject” value (patients with meningioma; Typical case 1: oral solution 15 mg once daily, two cycles) was “significantly mitigated head-distending pain”, the “clinical symptoms of subject” value (patients with meningioma; Typical case 2: baseline blindness in both eyes, oral solution 15 mg once daily, after two cycles) was “vision recovery and self-care recovery” and the “C2 target lesion shrinkage” value (patients with meningioma; Typical case 2: meningioma (fibrous) WHO grade I, oral solution 15 mg once daily, two cycles) was 36%. The “main adverse event during the treatment” value (patients with meningioma; Typical case 2: oral solution 15 mg once daily, recovered after administration was suspended) was “mild or moderate hypertension”, the “C2 target lesion shrinkage” value (patients with meningioma; Typical case 3: malignant meningioma, oral solution 15 mg once daily) was 56% and the “main adverse event during the treatment” value (patients with meningioma; Typical case 3: oral solution 15 mg once daily, recovered after taking a hypotensor) was “mild or moderate hypertension”. For the same compound, the target lesion shrinkage (patients with meningioma; Typical case 4: atypical meningioma WHO grade II, oral solution 20 mg once daily) was 61.47%, the “main adverse events during the treatment” value (patients with meningioma; Typical case 4: oral solution 20 mg once daily, recovered after symptomatic treatment) was “mild proteinuria, decreased platelet count, decreased neutrophil count, decreased leucocyte count, and increased alanine aminotransferase” and the “main adverse events during the treatment” value (patients with meningioma; Typical case 5: oral solution 25 mg once daily, mitigated/recovered after symptomatic treatment) was “mild hypertension, decreased platelet count, decreased neutrophil count, and increased alanine aminotransferase”. It also gave a target lesion shrinkage (patients with meningioma; Typical case 5: papillary meningioma WHO grade III, oral solution 25 mg once daily) of 36.73%, an MR cases (patients with meningioma; [9]) of 6 and a PR cases (patients with meningioma; [9]) of 4. The MR case (patients with meningioma; [10]) was 1, the PR cases (patients with meningioma; [10]) was 2 and the “patients exhibited tumor shrinkage after administration” value (patients with meningioma; [11]) was 26 patients. The “patients exhibiting tumor shrinkage after administration, share of all patients” value (patients with meningioma; [11]) was 76.5%, the cell scratch healing (CH157-MN [1]) was “significantly weaker cell scratch healing than that of the blank control group” and the cell scratch healing (IOMM-Lee [2]) was “significantly weaker cell scratch healing than that of the blank control group”. For the same compound, the invasion rates (CH157-MN [3]) was “significantly decreased”, the invasion rates (IOMM-Lee [4]) was “significantly decreased” and the late apoptosis (CH157-MN [5]) was “significantly increased”. For the same compound, the “total cell apoptosis ratio” value (CH157-MN [5]; with increasing concentration) was “increased”, the late apoptosis (IOMM-Lee [6]) was “significantly increased” and the “total cell apoptosis ratio” value (IOMM-Lee [6]; with increasing concentration) was “increased”.

From EP4678172A1, “USE OF NAPHTHYLAMIDE COMPOUND IN TREATMENT OF MENINGIOMA” (Shanghai Runshi Medical Technology Co., Ltd, priority 2023, dated 2024)
